According to US12492210B2, “Tricyclic compounds and their use” (HUTCHISON MEDIPHARMA LIMITED, priority 2019, dated 2025):

Columns and labels:
[1] = target: T1, MAPK1(ERK2) enzyme (Homo sapiens, UniProt P28482); experiment: Z-Lyte Kinase Assay of ERK2; format: biochemical; details: read-out: Example 18 IC50
T1 construct: purchased Invitrogen PV3313
Outline: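 FRET-based Z-LYTE assay using ERK2 kinase with Ser/Thr3 peptide; compound tested at 0.00046–1 μM final in 2% DMSO. Kinase reaction ran 1 h at 25-30° C, followed by 1 h development. The coumarin/fluorescein emission ratio (445/520 nm) gave % phosphorylation, and IC50 was fitted from inhibition relative to uninhibited control.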

[2] = tested on: p-RSK (Thr359) in colo205 cells; experiment: p-RSK (Thr359) Acumen Assay in Colo205; format: cell-based; details: Homo sapiens, COLO 205, 1 hour compound incubation, read-out: Example 19 IC50
Outline: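 Colo205 cells (4000/well, seeded overnight in 10% FBS) were exposed 1 hour at 37° C to compound added from a 3–0.001 μM dilution series in 5% DMSO. Cells were then fixed, permeabilised and immunostained for p-RSK Thr359, with PI counterstain. Acumen cytometry gave the percentage of positive cells, normalised to untreated wells and 3 uM GDC0994 wells, for the IC50 fit.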

T1 sequence (P28482 whole entry): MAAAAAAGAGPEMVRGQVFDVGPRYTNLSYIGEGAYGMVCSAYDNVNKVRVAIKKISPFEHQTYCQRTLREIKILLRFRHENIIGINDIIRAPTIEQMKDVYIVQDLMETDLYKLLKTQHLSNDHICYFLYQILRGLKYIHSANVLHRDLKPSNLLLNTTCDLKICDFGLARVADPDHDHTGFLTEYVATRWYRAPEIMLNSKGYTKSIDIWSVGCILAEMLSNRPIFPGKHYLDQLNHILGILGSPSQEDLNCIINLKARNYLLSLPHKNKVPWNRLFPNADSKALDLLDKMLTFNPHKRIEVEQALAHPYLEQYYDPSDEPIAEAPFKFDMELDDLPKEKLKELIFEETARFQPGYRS

IC50 [1] [nM] | IC50 [2] [nM] | Compound
5 to 10 | > 100 | Cc1cnc(Nc2ncnn2C)cc1-c1cc2n(c1)C[C@H](CF)n1c-2nnc1C(F)(F)c1ccccc1Cl [Compound 173]
≤ 5 | ≤ 100 | C[C@H]1CCn2cc(-c3cc(Nc4ccnn4C)ncc3Cl)cc2-c2nnc(C3(CC(F)(F)F)CCC3)n21 [Compound 160]
5 to 10 | ≤ 100 | C[C@H]1Cn2cc(-c3nc(Nc4ccnn4C)ncc3F)cc2-c2nnc(C(F)(F)c3ccccc3F)n21 [Compound 97]
> 10 | ≤ 100 | Cn1nccc1Nc1cc(-c2cc3n(c2)CCCCn2c-3nnc2C2(C(F)(F)F)CCC2)c(Cl)cn1 [Compound 261]
≤ 5 | ≤ 100 | Cc1cnc(Nc2ccnn2C)nc1-c1cc2n(c1)CCCn1c-2nnc1C1(C(F)(F)F)CCC1 [Compound 12]
5 to 10 | ≤ 100 | Cc1cnc(Nc2ccnn2C)nc1-c1cc2n(c1)CCCn1c(Cc3ccccc3F)nnc1-2 [Compound 6]
≤ 5 | > 100 | Cn1nccc1Nc1cc(-c2cc3n(c2)C[C@H](CF)n2c-3nnc2C(F)(F)C(F)(F)F)c(Cl)cn1 [Compound 114]
≤ 5 | ≤ 100 | Cn1nccc1Nc1cc(-c2cc3n(c2)C[C@H](F)Cn2c-3nnc2C(F)(F)C(F)F)c(Cl)cn1 [Compound 80]
≤ 5 | ≤ 100 | Cn1nccc1Nc1cc(-c2cc3n(c2)CCn2c-3nnc2C2(C(F)F)CCC2)c(Cl)cn1 [Compound 46]
≤ 5 | ≤ 100 | Cn1nccc1Nc1cc(-c2cc3n(c2)C[C@@H](F)Cn2c-3nnc2C2(C(F)(F)F)CCC2)c(Cl)cn1 [Compound 122]
≤ 5 | ≤ 100 | Cn1nccc1Nc1cc(-c2cc3n(c2)CCCn2c-3nnc2C2(C(F)F)CC2)c(Cl)cn1 [Compound 59]
> 10 | ≤ 100 | Cn1nccc1Nc1cc(-c2cc3n(c2)CCCn2c(Cc4c(F)cccc4Cl)nnc2-3)c(Cl)cn1 [Compound 33]
≤ 5 | > 100 | CCC(F)(F)c1nnc2n1[C@@H](CF)Cn1cc(-c3cc(Nc4ccnn4C)ncc3C)cc1-2 [Compound 57]
≤ 5 | ≤ 100 | C[C@H]1Cn2cc(-c3ccnc(Nc4ccnn4C(F)F)n3)nc2-c2nnc(C(F)(F)c3ccccc3Cl)n21 [Compound 227]
> 10 | ≤ 100 | Cc1cnc(Nc2ccnn2C)cc1-c1cc2n(c1)C[C@H](C(F)F)n1c-2nnc1C(F)(F)c1ccccc1Cl [Compound 204]
≤ 5 | ≤ 100 | Cn1nccc1Nc1cc(-c2cc3n(c2)CC2(COC2)Cn2c-3nnc2C(F)(F)C(F)F)c(Cl)cn1 [Compound 304, 5-chloro-N-(1-methyl-1H-pyrazol-5-yl)-4-(3′-(1,1,2,2-tetrafluoroethyl)-5′H,7′H-spiro[oxetane-3,6′-pyrrolo[1,2-a][1,2,4]triazolo[3,4-c][1,4]diazepin]-10′-yl)pyridin-2-amine]
≤ 5 | ≤ 100 | Cc1cnc(Nc2ccnn2C)cc1-c1cc2n(c1)C[C@H](CF)n1c-2nnc1C(F)(F)n1ccccc1=O [Compound 124]
≤ 5 | ≤ 100 | Cn1nccc1Nc1cc(-c2cc3n(c2)C[C@H](CF)n2c-3nnc2C(F)(F)c2ccccc2F)c(F)cn1 [Compound 145]
≤ 5 | ≤ 100 | Cn1nccc1Nc1cc(-c2cc3n(c2)CC(F)(F)Cn2c(Cn4cc(F)cn4)nnc2-3)c(Cl)cn1 [Compound 106]
≤ 5 | ≤ 100 | Cn1nccc1Nc1cc(-c2cc3n(c2)C[C@H](CF)n2c-3nnc2C2(C(F)(F)F)CCC2)c(Cl)cn1 [Compound 121]
≤ 5 | > 100 | C[C@H]1Cn2cc(-c3cc(Nc4ccnn4C)ncc3F)cc2-c2nnc(C(F)(F)n3cc(Cl)cn3)n21 [Compound 109]
≤ 5 | > 100 | Cn1nccc1Nc1cc(-c2cc3n(c2)CCCn2c-3nnc2C2(C#N)CCC2)c(Cl)cn1 [Compound 4]
5 to 10 | ≤ 100 | Cn1nccc1Nc1cc(-c2cc3n(c2)C[C@H](CF)n2c-3nnc2C(F)(F)c2ccccc2F)ccn1 [Compound 96]
≤ 5 | ≤ 100 | Cc1cnc(Nc2ccnn2C(F)F)nc1-c1cn2c(n1)-c1nnc(C(F)(F)c3ccccc3F)n1[C@@H](C)C2 [Compound 226]
≤ 5 | ≤ 100 | Cn1nccc1Nc1cc(-c2cc3n(c2)CC(F)(F)Cn2c(Cn4cccc4C#N)nnc2-3)c(Cl)cn1 [Compound 217, 1-((10-(5-chloro-2-((1-methyl-1H-pyrazol-5-yl)amino)pyridin-4-yl)-6,6-difluoro-6,7-dihydro-5H-pyrrolo[1,2-a][1,2,4]triazolo[3,4-c][1,4]diazepin-3-yl)methyl)-1H-pyrrole-2-carbonitrile]
> 10 | ≤ 100 | Cc1cnc(Nc2ccnn2C)cc1-c1cc2n(c1)C[C@H](CF)n1c-2nnc1C(F)(F)c1c(F)cccc1F [Compound 185]

IC50 [1] [nM] | IC50 [2] [nM] | Compound
> 10 | ≤ 100 | Cn1nccc1Nc1cc(-c2cc3n(c2)C[C@H](CF)n2c-3nnc2C(F)(F)c2ccccc2)c(Cl)cn1 [Compound 137]
5 to 10 | > 100 | Cc1cnc(Nc2ccnn2C)cc1-c1cc2n(c1)CC1(CC1)Cn1c-2nnc1C(F)(F)C(F)(F)F [Compound 84]
≤ 5 | ≤ 100 | Cn1nccc1Nc1cc(-c2cc3n(c2)CCCn2c-3nnc2C2(C(F)F)CC(F)(F)C2)c(Cl)cn1 [Compound 120]
≤ 5 | ≤ 100 | Cc1cnc(Nc2ccnn2C(F)F)nc1-c1cn2c(n1)-c1nnc(C(F)(F)c3ccccc3Cl)n1[C@@H](C)C2 [Compound 228]
> 10 | > 100 | Cn1nccc1Nc1cc(-c2cc3n(c2)[C@H]2CC[C@H](C2)n2c-3nnc2C2(C(F)(F)F)CCC2)c(Cl)cn1 [Compound 267]
5 to 10 | ≤ 100 | C[C@H]1CCn2cc(-c3cc(Nc4ccnn4C)ncc3Cl)cc2-c2nnc(C3(C(F)(F)F)CCC3)n21 [Compound 262]
≤ 5 | ≤ 100 | Cc1cnc(Nc2ccnn2C)cc1-c1cc2n(c1)C[C@H](CF)n1c-2nnc1C(F)(F)c1cc(F)ccc1F [Compound 183]
≤ 5 | ≤ 100 | Cc1cnc(Nc2ccnn2C)nc1-c1cc2n(c1)CCn1c-2nnc1C(F)(F)c1ccccc1Cl [Compound 94]
≤ 5 | ≤ 100 | COc1ccccc1C(F)(F)c1nnc2n1[C@@H](CF)Cn1cc(-c3nc(Nc4ccnn4C)ncc3C)cc1-2 [Compound 167]
5 to 10 | ≤ 100 | Cn1nccc1Nc1nccc(-c2cc3n(c2)C[C@H](CF)n2c-3nnc2C(F)(F)c2ccccc2Cl)n1 [Compound 142]
5 to 10 | ≤ 100 | Cn1nccc1Nc1cc(-c2cc3n(c2)CC2(CC2)n2c-3nnc2C(F)(F)C(F)F)c(F)cn1 [Compound 235]
≤ 5 | ≤ 100 | Cc1cnc(Nc2ccnn2C)nc1-c1cn2c(n1)-c1nnc(C(F)(F)c3ccccc3Cl)n1[C@H](CF)C2 [Compound 224]
≤ 5 | ≤ 100 | Cn1nccc1Nc1cc(-c2cc3n(c2)C[C@H](CF)n2c-3nnc2C(F)(F)c2ccnn2C)c(Cl)cn1 [Compound 154]
≤ 5 | ≤ 100 | Cn1nccc1Nc1cc(-c2cc3n(c2)C[C@H](CF)n2c-3nnc2C(F)(F)C(F)F)c(Cl)cn1 [Compound 79]
≤ 5 | ≤ 100 | Cn1nccc1Nc1cc(-c2cc3n(c2)CC(F)(F)Cn2c-3nnc2C2(C(F)F)CCC2)c(Cl)cn1 [Compound 266]
5 to 10 | ≤ 100 | Cn1nccc1Nc1cc(-c2cc3n(c2)C[C@H](CF)n2c-3nnc2C(F)(F)c2ccccc2Cl)ccn1 [Compound 138]
≤ 5 | ≤ 100 | Cc1cn2cc(-c3ccnc(Nc4ccnn4C)n3)cc2c2nnc(C3(C(F)(F)F)CCC3)n12 [Compound 232]
5 to 10 | ≤ 100 | Cc1cnc(Nc2ccnn2C)nc1-c1cc2n(c1)C[C@H](C)n1c-2nnc1C(F)(F)c1ccccc1Cl [Compound 125]
≤ 5 | ≤ 100 | CO[C@@H]1Cn2cc(-c3cc(Nc4ccnn4C)ncc3Cl)cc2-c2nnc(C3(C(F)(F)F)CCC3)n2C1 [Compound 302]
5 to 10 | > 100 | Cn1nccc1Nc1cc(-c2cc3n(c2)C[C@H](CF)n2c-3nnc2C2(C(C)(F)F)CCC2)c(Cl)cn1 [Compound 116]
≤ 5 | ≤ 100 | Cn1nccc1Nc1nccc(-c2cn3c(c2F)-c2nnc(COc4ccccc4F)n2CCC3)n1 [Compound 246]
≤ 5 | ≤ 100 | Cc1cnc(Nc2ccnn2C)cc1-c1cc2n(c1)CC1(CC1)Cn1c-2nnc1C1(C(F)(F)F)CCC1 [Compound 258]
≤ 5 | ≤ 100 | Cn1nccc1Nc1nccc(-c2cc3c4nnc(COc5ccccc5F)n4ccn3c2)n1 [Compound 2]
5 to 10 | ≤ 100 | C[C@H]1Cn2cc(-c3cc(Nc4ccnn4C)ncc3Cl)cc2-c2nnc(C(F)(F)c3ccccc3F)n21 [Compound 135]
> 10 | ≤ 100 | Cn1nccc1Nc1cc(-c2cc3n(c2)C[C@H](CF)n2c-3nnc2C(F)(F)c2ccccc2Cl)c(F)cn1 [Compound 192]
5 to 10 | ≤ 100 | C[C@H](Oc1ccccc1F)c1nnc2c3cc(-c4ccnc(Nc5ccnn5C)n4)cn3ccn12 [Compound 39, (S)-4-(3-(1-(2-fluorophenoxy)ethyl)pyrrolo[1,2-a][1,2,4]triazolo[3,4-c]pyrazin-9-yl)-N-(1-methyl-1H-pyrazol-5-yl)pyrimidin-2-amine]
